Values joined by “and” are separate entries in the source; they are usually repeats but may differ in a detail not shown here. Equal values may be shown once.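 Values below derive from 48-hour exposures of cells grown in 96-well plates, with endpoints linearly interpolated between the two concentrations bracketing the appropriate inhibition level. GI50: concentration for 50% inhibition of growth. At the TGI there is no net growth.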
Experiments:
Test in all cases: DTP human tumour cell line panel, 48 h; in the data active = GI50 below about 0.43 µM; inactive = the rest
DMS 114 small cell lung = test system: DMS 114 small cell lung
HL-60(TB) leukemia = test system: HL-60(TB) leukemia
LOX IMVI melanoma = test system: LOX IMVI melanoma
OVCAR-3 ovarian = test system: OVCAR-3 ovarian
COLO 205 colon = test system: COLO 205 colon
SF-295 CNS = test system: SF-295 CNS
OVCAR-8 ovarian = test system: OVCAR-8 ovarian
ACHN renal = test system: ACHN renal
LXFL 529 NSCLC = test system: LXFL 529 NSCLC
M14 melanoma = test system: M14 melanoma
OVCAR-4 ovarian = test system: OVCAR-4 ovarian
HCC-2998 colon = test system: HCC-2998 colon
MOLT-4 leukemia = test system: MOLT-4 leukemia
786-0 renal = test system: 786-0 renal
A498 renal = test system: A498 renal
OVCAR-5 ovarian = test system: OVCAR-5 ovarian
UACC-257 melanoma = test system: UACC-257 melanoma
HCT-15 colon = test system: HCT-15 colon
NCI-H23 lung = test system: NCI-H23 lung
SNB-75 CNS = test system: SNB-75 CNS
DLD-1 colon = test system: DLD-1 colon
UACC-62 melanoma = test system: UACC-62 melanoma
KM20L2 colon = test system: KM20L2 colon
KM12 colon = test system: KM12 colon
SNB-78 CNS = test system: SNB-78 CNS
IGROV1 ovarian = test system: IGROV1 ovarian
HOP-62 NSCLC = test system: HOP-62 NSCLC
NCI-H460 lung = test system: NCI-H460 lung
RPMI-8226 leukemia = test system: RPMI-8226 leukemia
U251 CNS = test system: U251 CNS
UO-31 renal = test system: UO-31 renal
SK-MEL-2 melanoma = test system: SK-MEL-2 melanoma
SK-MEL-5 melanoma = test system: SK-MEL-5 melanoma
SF-268 CNS = test system: SF-268 CNS
K-562 leukemia = test system: K-562 leukemia
HT29 colon = test system: HT29 colon
HCT-116 colon = test system: HCT-116 colon
A549 NSCLC = test system: A549 NSCLC
HOP-92 NSCLC = test system: HOP-92 NSCLC
SW-620 colon = test system: SW-620 colon
SK-MEL-28 melanoma = test system: SK-MEL-28 melanoma
NCI-H522 lung = test system: NCI-H522 lung
CCRF-CEM leukemia = test system: CCRF-CEM leukemia
EKVX NSCLC = test system: EKVX NSCLC
SF-539 CNS = test system: SF-539 CNS
SK-OV-3 ovarian = test system: SK-OV-3 ovarian
TK-10 renal = test system: TK-10 renal
MALME-3M melanoma = test system: MALME-3M melanoma
SN12C renal = test system: SN12C renal
SNB-19 CNS = test system: SNB-19 CNS
MDA-N = test system: MDA-N
SR leukemia = test system: SR leukemia
BT-549 breast = test system: BT-549 breast
MCF7 breast = test system: MCF7 breast
CAKI-1 renal = test system: CAKI-1 renal
MDA-MB-231 breast = test system: MDA-MB-231 breast
PC-3 prostate = test system: PC-3 prostate
MDA-MB-435 = test system: MDA-MB-435
HS 578T breast = test system: HS 578T breast
T-47D breast = test system: T-47D breast
NCI/ADR-RES ovarian = test system: NCI/ADR-RES ovarian
RXF 393 renal = test system: RXF 393 renal
NCI-H226 lung = test system: NCI-H226 lung
DU-145 prostate = test system: DU-145 prostate

CC(C)SC1CC2C(CC1(C)O)C2(C)C (stereo not given)
> 100 µM: TGI (DMS 114 small cell lung) | TGI (HL-60(TB) leukemia)
inactive: GI50 (DMS 114 small cell lung) 89.7 µM and 18.7 µM | GI50 (HL-60(TB) leukemia) 53.4 µM and 9.68 µM

N.N.N.N.O=C([O-])CCl.O=C([O-])CCl.[Co+3].[O-][Cl+3]([O-])([O-])[O-]
inactive: GI50 (LOX IMVI melanoma) > 100 µM | GI50 (OVCAR-3 ovarian) > 100 µM | GI50 (COLO 205 colon) > 100 µM | GI50 (SF-295 CNS) > 100 µM | GI50 (OVCAR-8 ovarian) > 100 µM | GI50 (ACHN renal) > 100 µM | GI50 (LXFL 529 NSCLC) > 100 µM | GI50 (M14 melanoma) > 100 µM | GI50 (OVCAR-4 ovarian) > 100 µM | GI50 (HCC-2998 colon) > 100 µM | GI50 (MOLT-4 leukemia) > 100 µM | GI50 (786-0 renal) > 100 µM | GI50 (A498 renal) > 100 µM | GI50 (OVCAR-5 ovarian) > 100 µM | GI50 (UACC-257 melanoma) > 100 µM | GI50 (HCT-15 colon) > 100 µM | GI50 (NCI-H23 lung) > 100 µM | GI50 (SNB-75 CNS) 61.3 µM | GI50 (DLD-1 colon) > 100 µM | GI50 (UACC-62 melanoma) > 100 µM | GI50 (KM20L2 colon) > 100 µM | GI50 (KM12 colon) > 100 µM | GI50 (SNB-78 CNS) > 100 µM | GI50 (IGROV1 ovarian) > 100 µM | GI50 (HOP-62 NSCLC) > 100 µM | GI50 (NCI-H460 lung) > 100 µM | GI50 (RPMI-8226 leukemia) > 100 µM | GI50 (U251 CNS) > 100 µM | GI50 (UO-31 renal) > 100 µM | GI50 (SK-MEL-2 melanoma) > 100 µM | GI50 (SK-MEL-5 melanoma) > 100 µM | GI50 (SF-268 CNS) > 100 µM | GI50 (K-562 leukemia) > 100 µM | GI50 (HT29 colon) > 100 µM | GI50 (HCT-116 colon) > 100 µM | GI50 (A549 NSCLC) > 100 µM | GI50 (HOP-92 NSCLC) 86.5 µM | GI50 (SW-620 colon) > 100 µM | GI50 (SK-MEL-28 melanoma) > 100 µM | GI50 (HL-60(TB) leukemia) > 100 µM | GI50 (NCI-H522 lung) > 100 µM | GI50 (CCRF-CEM leukemia) > 100 µM | GI50 (EKVX NSCLC) > 100 µM | GI50 (SF-539 CNS) > 100 µM | GI50 (SK-OV-3 ovarian) > 100 µM | GI50 (TK-10 renal) > 100 µM | GI50 (MALME-3M melanoma) > 100 µM | GI50 (SN12C renal) > 100 µM | GI50 (SNB-19 CNS) > 100 µM
> 100 µM: TGI (LOX IMVI melanoma) | TGI (OVCAR-3 ovarian) | TGI (COLO 205 colon) | TGI (SF-295 CNS) | TGI (OVCAR-8 ovarian) | TGI (ACHN renal) | TGI (LXFL 529 NSCLC) | TGI (M14 melanoma) | TGI (OVCAR-4 ovarian) | TGI (HCC-2998 colon) | TGI (MOLT-4 leukemia) | TGI (786-0 renal) | TGI (A498 renal) | TGI (OVCAR-5 ovarian) | TGI (UACC-257 melanoma) | TGI (HCT-15 colon) | TGI (NCI-H23 lung) | TGI (SNB-75 CNS) | TGI (DLD-1 colon) | TGI (UACC-62 melanoma) | TGI (KM20L2 colon) | TGI (KM12 colon) | TGI (SNB-78 CNS) | TGI (IGROV1 ovarian) | TGI (HOP-62 NSCLC) | TGI (NCI-H460 lung) | TGI (RPMI-8226 leukemia) | TGI (U251 CNS) | TGI (UO-31 renal) | TGI (SK-MEL-2 melanoma) | TGI (SK-MEL-5 melanoma) | TGI (SF-268 CNS) | TGI (K-562 leukemia) | TGI (HT29 colon) | TGI (HCT-116 colon) | TGI (A549 NSCLC) | TGI (HOP-92 NSCLC) | TGI (SW-620 colon) | TGI (SK-MEL-28 melanoma) | TGI (HL-60(TB) leukemia) | TGI (NCI-H522 lung) | TGI (CCRF-CEM leukemia) | TGI (EKVX NSCLC) | TGI (SF-539 CNS) | TGI (SK-OV-3 ovarian) | TGI (TK-10 renal) | TGI (MALME-3M melanoma) | TGI (SN12C renal) | TGI (SNB-19 CNS)

CC(C)NC(=O)OCc1c(COC(=O)NC(C)C)c(-c2cc[n+](COC(=O)C3CC3)cc2)n2c1CCC2
> 100 µM: TGI (LOX IMVI melanoma) | TGI (OVCAR-3 ovarian) | TGI (COLO 205 colon) | TGI (SF-295 CNS) | TGI (OVCAR-8 ovarian) | TGI (ACHN renal) | TGI (M14 melanoma) | TGI (OVCAR-4 ovarian) | TGI (MDA-N) | TGI (HCC-2998 colon) | TGI (SR leukemia) | TGI (MOLT-4 leukemia) | TGI (786-0 renal) | TGI (A498 renal) | TGI (OVCAR-5 ovarian) | TGI (UACC-257 melanoma) | TGI (BT-549 breast) | TGI (HCT-15 colon) | TGI (NCI-H23 lung) | TGI (SNB-75 CNS) | TGI (MCF7 breast) | TGI (UACC-62 melanoma) | TGI (CAKI-1 renal) | TGI (KM12 colon) | TGI (IGROV1 ovarian) | TGI (HOP-62 NSCLC) | TGI (NCI-H460 lung) | TGI (RPMI-8226 leukemia) | TGI (U251 CNS) | TGI (UO-31 renal) | TGI (SK-MEL-2 melanoma) | TGI (MDA-MB-231 breast) | TGI (SK-MEL-5 melanoma) | TGI (PC-3 prostate) | TGI (SF-268 CNS) | TGI (K-562 leukemia) | TGI (HT29 colon) | TGI (HCT-116 colon) | TGI (MDA-MB-435) | TGI (A549 NSCLC) | TGI (HOP-92 NSCLC) | TGI (SW-620 colon) | TGI (SK-MEL-28 melanoma) | TGI (HS 578T breast) | TGI (T-47D breast) | TGI (NCI/ADR-RES ovarian) | TGI (RXF 393 renal) | TGI (HL-60(TB) leukemia) | TGI (NCI-H226 lung) | TGI (NCI-H522 lung) | TGI (CCRF-CEM leukemia) | TGI (EKVX NSCLC) | TGI (SF-539 CNS) | TGI (SK-OV-3 ovarian) | TGI (TK-10 renal) | TGI (MALME-3M melanoma) | TGI (DU-145 prostate) | TGI (SN12C renal) | TGI (SNB-19 CNS)

COC(=O)C1=C(OC(=O)/C(=C/c2ccc(Cl)cc2)c2ccc(Cl)cc2)C(C(=O)OC)[C@@]2(O)[C@@H](C(=O)OC)[C@H](C)C[C@@H]1[C@@H]2C(=O)OC (stereo not given in full)
> 87.7 µM: TGI (A549 NSCLC)
98.8 µM: TGI (MOLT-4 leukemia)
> 67.3 µM: TGI (NCI-H522 lung)
> 86.9 µM: TGI (HOP-92 NSCLC)
> 100 µM: TGI (LOX IMVI melanoma) | TGI (OVCAR-3 ovarian) | TGI (COLO 205 colon) | TGI (SF-295 CNS) | TGI (OVCAR-8 ovarian) | TGI (ACHN renal) | TGI (M14 melanoma) | TGI (OVCAR-4 ovarian) | TGI (MDA-N) | TGI (HCC-2998 colon) | TGI (SR leukemia) | TGI (786-0 renal) | TGI (A498 renal) | TGI (OVCAR-5 ovarian) | TGI (UACC-257 melanoma) | TGI (BT-549 breast) | TGI (HCT-15 colon) | TGI (NCI-H23 lung) | TGI (SNB-75 CNS) | TGI (MCF7 breast) | TGI (UACC-62 melanoma) | TGI (CAKI-1 renal) | TGI (KM12 colon) | TGI (IGROV1 ovarian) | TGI (HOP-62 NSCLC) | TGI (NCI-H460 lung) | TGI (RPMI-8226 leukemia) | TGI (U251 CNS) | TGI (UO-31 renal) | TGI (SK-MEL-2 melanoma) | TGI (MDA-MB-231 breast) | TGI (SK-MEL-5 melanoma) | TGI (PC-3 prostate) | TGI (SF-268 CNS) | TGI (K-562 leukemia) | TGI (HT29 colon) | TGI (HCT-116 colon) | TGI (MDA-MB-435) | TGI (SW-620 colon) | TGI (SK-MEL-28 melanoma) | TGI (HS 578T breast) | TGI (T-47D breast) | TGI (NCI/ADR-RES ovarian) | TGI (RXF 393 renal) | TGI (HL-60(TB) leukemia) | TGI (NCI-H226 lung) | TGI (CCRF-CEM leukemia) | TGI (EKVX NSCLC) | TGI (SF-539 CNS) | TGI (SK-OV-3 ovarian) | TGI (TK-10 renal) | TGI (MALME-3M melanoma) | TGI (DU-145 prostate) | TGI (SN12C renal) | TGI (SNB-19 CNS)

From PubChem BioAssay (NCI)
